In a melting point compilation (Tetko et al.; mined from patent text by program, amines drawn as free bases though some values may be those of a salt):

Row | Compound | melting point
1 | CC(C)(C)OC(=O)N[C@@H](Cc1ccc(-c2ccccc2)cc1)C(=O)NCCC#N | 163 to 164 °C
2 | NC(=O)C(OCc1ccc(Cl)cc1)(C(F)(F)F)C(F)(F)F | 94 to 95 °C
3 | CNC(=O)c1cccc(NC(=O)Cc2cccc(O)c2)c1 | 163 °C
4 | FC1(F)Oc2ccc(C=Cc3nc(CNc4ccc(CCCCn5ccnn5)cc4)co3)cc2O1 | 102 to 104 °C
5 | CN(O)C(=O)CCc1ccc2c(c1)Cc1ccccc1CO2 | 120 to 122 °C
6 | CCNc1nc(-c2ccc(NC(=O)NCc3cccnc3)cc2)ccc1C(=O)NCCN(C(C)C)C(C)C | 160 to 162 °C
7 | CN(C)c1ncnc2[nH]c(-c3ccc(Cn4ccnc4)cc3)cc12 | 273 to 275 °C
8 | O=c1c2cc(OCc3ccccc3)ccc2[nH]c2c([N+](=O)[O-])ccc(Cl)c12 | 216 to 217 °C
9 | CCC(CC)N1CSc2cnc(N)nc21 | > 232 °C
10 | CC(O)CCSC(=S)Nc1ccc(Cl)cn1 (stereo unspecified) | 120 °C
11 | COc1ccc2c(c1Br)CCC1CN(C)CC21 (stereo unspecified) | 144 to 146 °C
12 | CCOC(=O)c1c(O)c(Br)c(Br)n1-c1ccccc1 | 144 to 145 °C
13 | COc1cc(C(F)(F)F)ccc1-c1ccc2c(c1)S(=O)(=O)NC(C1CCCCC1)N2 (stereo unspecified) | 255 to 257 °C
14 | NC1=NC(c2ccc(OC(F)(F)F)cc2)(c2cccc(-c3cccnc3F)c2)C2=NOCCN12 (stereo unspecified) | 102 to 117 °C
15 | CCCn1c(CCOC)nc2c(N)nc3cc(OC4CCN(C(=O)NC(C)C)CC4)ccc3c21 | 176 to 179 °C
16 | CCn1ncc(C(=O)c2ccc(S(C)(=O)=O)c(COC)c2C)c1O | 116 to 118 °C
17 | Cc1ccc(C(=S)c2cccc3c2NC(=O)C3)cc1 | 167 to 169 °C
18 | CCOC(=O)C(C)(C)Oc1cccc(Cc2ccc(C(F)(F)F)cc2)c1 | 50 °C
19 | CC(=O)N1c2ccc(N(C)C)cc2Sc2cc(N(C)C)ccc21 | 137 °C
20 | COC(=O)c1cc(NN=C(c2ccccc2)c2ccccc2)c(C#N)s1 | 178 to 180 °C
21 | CCC1(CC)OC(=O)N(CCC(C)(C)NC[C@H](O)c2ccc(O)c(NS(C)(=O)=O)c2)c2ccccc21 | 168 °C
22 | COc1ccc(N(CCC(=O)N(C)CC(=O)O)C(=O)c2ccc(Cl)cc2)cc1 | 129 to 131 °C
23 | C=CCONC(=O)c1nc(-c2ccc(C#N)cc2)cc(N)c1Cl | 218 to 221 °C
24 | CCCCN(CCCC)CCCOc1ccc(S(=O)(=O)c2ccccc2CC)cc1 | 80 °C

Row | Compound | melting point
25 | CCC1(N)CCN(c2c(F)c(N)c3c(=O)c(C(=O)O)cn(C4CC4)c3c2F)C1 (stereo unspecified) | 205 to 206 °C
26 | COCOc1c(-c2cccc(C=CC(=O)O)c2)ccc2c1C(C)(C)CCC2(C)C | 188 to 189 °C
27 | Cc1[nH]c2ccccc2c1/C=C/C(=O)c1ccncc1 | 268 to 272 °C
28 | COC(=O)Nc1nc2ccccc2n1C(=O)NCC1(C)CC(NC(=O)n2c(NC(=O)OC)nc3ccccc32)CC(C)(C)C1 (stereo unspecified) | 82 to 83 °C
29 | CCc1c(CNS(=O)(=O)c2cccc(Cl)c2)nn(-c2ccc(Cl)cc2Cl)c1-c1ccc(Br)cc1 | 169 °C
30 | CC(=O)NCCN1CCCc2ccccc21 | 102 °C
31 | NCC1N=C(c2ccccc2F)c2ccccc2NC1=O (racemic) | 168 to 169 °C
32 | CN1CCC(c2c[nH]c3ccc(C(=O)c4ccc(Cl)cc4)cc23)CC1 | 133 °C
33 | O=C1c2ccccc2C(=O)c2c(Nc3ccc(O)cc3)ccc(Nc3ccc(O)cc3)c21 | 340 to 342 °C
34 | O=c1cc(COC2CCCCO2)occ1OCc1ccc(CBr)cc1 (stereo unspecified) | 83.5 °C
35 | OCCOCCn1ccc2ncnc(Nc3ccc(Oc4cccc(C(F)(F)F)c4)c(Cl)c3)c21 | 130 to 132 °C
36 | O=C(O)c1ccc(=O)n(NC(=O)c2cccnc2)c1 | > 250 °C
37 | CC1CN(C(P(=O)(O)O)P(=O)(O)O)CC(C)S1 (stereo unspecified) | 219 to 220 °C
38 | C=CCOc1ccc(C(=O)C=Cc2cc(OC)cc(OC)c2)cc1 | 88.5 to 90 °C
39 | COC(=O)C1=Cc2cc(-c3ccc(OCCOC(C)C)cc3)ccc2N(C=O)CC1 | 107 to 108 °C
40 | CCOC(=O)C(CC)Oc1cccc(N2CCN(c3ccncc3)CC2)c1 (stereo unspecified) | 160 to 162 °C
41 | COc1ccc(CNC(=O)C(=O)NCCc2ccccn2)cc1 | 156 to 158 °C
42 | CCn1cc(S(=O)(=O)NC(=O)c2cn3cc(C(F)(F)F)cc(Cl)c3n2)c(C)n1 | 189 to 190 °C
43 | CC1=C(C2C=CN(C(=O)OCC(Cl)(Cl)Cl)C=C2)SC(C)C(=O)N1 (stereo unspecified) | 140 to 142 °C
44 | O=C1c2ccccc2C(=O)N1c1cc(C(Cl)(Cl)Cl)ccn1 | 143 °C
45 | O[C@H](COc1cccc2[nH]ccc12)CN1CCC(c2c[nH]c3cc(C(F)(F)F)ccc23)CC1 | 100 to 105 °C
46 | COC(=O)c1cc(Br)c(OC)c2c1OCO2 | 165 to 166 °C
47 | CC1CN(C)c2c(Cl)ccc3c(=O)c(C(=O)O)cn1c23 (stereo unspecified) | 243 to 245 °C
48 | Cc1ccc(C)c(C(=O)c2c(S(C)(=O)=O)nn(-c3c(Cl)cc(C(F)(F)F)cc3Cl)c2N)c1 | 194 °C

Row | Compound | melting point
49 | OCCc1c[nH]c2ccc(O)cc12 | 98 to 102 °C
50 | CS(=O)(=O)CCCn1c(=N)sc2cc(OC(F)(F)F)ccc21 | 180 °C
51 | COc1ccc(CNc2nc(SC)ncc2C(=O)Nc2cncnc2)cc1Cl | 238 to 240 °C
52 | O=S(=O)(Nc1ccc(C2=NC3(O)c4ccc(Cl)cc4CC3S2)cc1)c1ccc(Cl)cc1 (stereo unspecified) | 116 °C
53 | O=C(O)C(=NO)C(c1ccc(OCc2ccc3ccc(Cl)cc3n2)cc1)c1ccc(OCc2ccc3ccc(Cl)cc3n2)cc1 | 201 to 202 °C
54 | COCc1c(O)ccc2c1CCCC2=O | 142 to 143 °C
55 | Cc1ccc(S(=O)(=O)OCC2Cc3cccc(-c4cccc(C(F)(F)F)c4)c3O2)cc1 (stereo unspecified) | 90 to 93 °C
56 | CCCCOc1c(CNC(=O)OC(C)(C)C)n(CC(C)C)c(=O)c2ccc(-c3noc(=O)[nH]3)cc12 | 223 to 224 °C
57 | COC(=O)c1sccc1S(=O)(=O)N=C(N)NNc1nc(C)cc(C)n1 | 213 °C
58 | NS(=O)(=O)c1cc2c(s1)CN(CCO)CC2 | 184 to 186 °C
59 | O=c1c2ccccc2n(CCCOC2CCCCO2)c2ccccc12 (stereo unspecified) | 140 to 142 °C
60 | COc1ccc(C(=NOC(C)=O)c2ccc(Cl)cc2)c(O)c1 | 167 °C
61 | CCn1ncc2c3noc(-c4cccc(C)c4)c3cnc21 | 178 to 179 °C
62 | CCOc1cc2c(Nc3cc(OC)c(Cl)cc3Cl)c(C#N)cnc2cc1F | 184 to 186 °C
63 | Cc1nc(N2CCN(CC(C)C)C2=O)sc1C(N)=O | 212 to 215 °C
64 | Oc1ccc(-c2c3ccccc3cc3sc4ccccc4c23)cc1I | 125 to 128 °C
65 | Cc1ccc(CCN(C)CCCCCC2Cc3cc(O)ccc3C3C(F)CC4(C)C(O)CCC4C23)cc1 (stereo unspecified) | 142 to 143 °C
66 | Cc1cc(-c2ccc(Cl)cc2)cnc1N=CN(C)C | 99 °C
67 | CCCCN1CCC(C(=O)O)(S(=O)(=O)c2ccc(Oc3ccc(Cl)cc3)cc2)CC1 | 201 °C
68 | O=S(=O)(Cl)c1nc2nc(CF)cc(Cl)n2n1 | 92 to 98 °C
69 | CCc1c[nH]c(=O)c(N)c1Sc1cc(C)cc(C)c1 | 208 to 209 °C
70 | COc1ccc2c(n1)NC(C)(C)C(=O)N2 | 194 to 195 °C
71 | CC(C)(C)[N+]([O-])=Cc1cc([N+](=O)[O-])ccc1O | 172 °C
